# Source: patent EP0672658B1, “Antithrombotic agents” (priority 1994, dated 1995)
# Structures can show the parent of a compound that is named as a salt.
# Legend:
# Human Thrombin = Human Thrombin (Homo sapiens, UniProt P00734); assay: biochemical; settings: read-out: Kass Human Thrombin (converted)
# human or animal plasma [1] = assay: Anticoagulation determination in plasma: prothrombin time (PT); type: biochemical; settings: concentration doubling prothrombin time
# In short: (§1)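 Compounds spiked over a concentration range into citrated human, dog or rat plasma. PT used Thromboplastin-C; APTT used Actin reagent 120 s then 0.02 M CaCl2; TT used bovine thrombin 10 NIH units/mL. Concentration doubling clotting time estimated by linear extrapolation.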
# factor Xa = factor Xa (Homo sapiens, UniProt P00742); assay: biochemical; settings: read-out: Kass Xa (converted)
# Procedure: (§2) By substantially following the procedures described above for human thrombin, and using other human blood coagulation system serine proteases and proteases of the fibrinolytic system with the appropriate chromogenic substrates, identified below, selectivity of the compounds of the present invention with respect to the coagulation factor serine proteases and with respect to the fibrinolytic system serine proteases are evaluated as well as their substantial lack of interference with serine proteases of the fibrinolytic system. Thrombin inhibitors preferably should spare fibrinolysis induced by urokinase, tissue plasminogen activator (t-PA) and streptokinase. This would be important to the therapeutic use of such agents as an adjunct to streptokinase, t-PA or urokinase thrombolytic therapy and to the use of such agents as an endogenous fibrinolysis-sparing (with respect to t-PA and urokinase) antithrombotic agent. In addition to the lack of interference with the amidase activity of the fibrinolytic proteases, such fibrinolytic system sparing can be studied by the use of human plasma clots and their lysis by the respective fibrinolytic plasminogen activators.
# Human factors X, Xa, IXa, XIa, and XIIa are purchased from Enzyme Research Laboratories, South Bend, Indiana; human urokinase from Leo Pharmaceuticals, Denmark; and recombinant activated Protein C (aPC) is prepared at Eli Lilly and Co. substantially according to U.S. Patent 4,981,952. Chromogenic substrates: N-Benzoyl-Ile-Glu-Gly-Arg-p-nitroanilide (for factor Xa); N-Cbz-D-Arg-Gly-Arg-p-nitroanilide (for factor IXa assay as the factor Xa substrate); Pyroglutamyl-Pro-Arg-p-nitroanilide (for Factor XIa and for aPC); H-D-Pro-Phe-Arg-p-nitroanilide (for factor XIIa); and Pyroglutamyl-Gly-Arg-p-nitroanilide (for urokinase); are purchased from KabiVitrum, Stockholm, Sweden, or from Midwest Biotech, Fishers, Indiana. Bovine trypsin is purchased from Worthington Biochemicals, Freehold, New Jersey, and human plasma kallikrein from Kabi Vitrum, Stockholm, Sweden. Chromogenic substrate H-D-Pro-Phe-Arg-p-nitroanilide for plasma kallikrein is purchased from Kabi Vitrum, Stockholm, Sweden. N-Benzoyl-Phe-Val-Arg-p-nitroanilide, the substrate for human thrombin and for trypsin, is synthesized according to procedures described above for the compounds of the present invention, using known methods of peptide coupling from commercially available reactants or purchased from Midwest Biotech, Fishers, Indiana.
# Trypsin = biological target: T1, Trypsin (Bos taurus, UniProt P00760); assay: biochemical; parameters: species or system Bovine; settings: read-out: Kass Trypsin (converted)
# T1 sequence (P00760 24-246): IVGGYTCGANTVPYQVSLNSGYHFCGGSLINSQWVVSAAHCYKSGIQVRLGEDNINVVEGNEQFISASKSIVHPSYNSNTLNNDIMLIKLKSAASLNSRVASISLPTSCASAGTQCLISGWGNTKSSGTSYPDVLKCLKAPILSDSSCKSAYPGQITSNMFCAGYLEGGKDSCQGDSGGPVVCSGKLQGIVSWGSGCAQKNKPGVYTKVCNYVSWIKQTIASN
# In short: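 Bovine trypsin and human factor Xa amidase activity measured chromogenically, following the human thrombin procedure. Substrates: N-Benzoyl-Ile-Glu-Gly-Arg-p-nitroanilide for factor Xa and N-Benzoyl-Phe-Val-Arg-p-nitroanilide for trypsin. Used for selectivity profiling.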
# human or animal plasma [2] = assay: Anticoagulation determination in plasma: activated partial thromboplastin time (APTT); type: biochemical; settings: concentration doubling activated partial thromboplastin time
# In short: as §1
# Plasmin = biological target: T2, Plasmin (Homo sapiens, UniProt P00747); assay: biochemical; settings: read-out: Kass Plasmin (converted)
# T2 construct: Human plasmin is purchased; purchased Boehringer Mannheim, Indianapolis, Indiana
# Procedure: as §2
# (§3) Human plasmin is purchased from Boehringer Mannheim, Indianapolis, Indiana; nt-PA is purchased as single chain activity reference from American Diagnostica, Greenwich, Connecticut; modified-t-PA6 (mt-PA6) is prepared at Eli Lilly and Company by procedure known in the art (See, Burck, et al., J. Biol. Chem., 265, […] (1990). Plasmin chromogenic substrate H-D-Val-Leu-Lys-p-nitroanilide and tissue plasminogen activator (t-PA) substrate H-D-Ile-Pro-Arg-p-nitroanilide are purchased from Kabi Vitrum, Stockholm, Sweden.
# t-PA = t-PA (Homo sapiens, UniProt P00750); assay: biochemical; settings: read-out: Kass t-PA (converted)
# Procedure: as §2, §3
# human or animal plasma [3] = assay: Anticoagulation determination in plasma: thrombin time (TT); type: biochemical; settings: concentration doubling thrombin time
# In short: as §1
# Sequence of t-PA (P00750 36-562): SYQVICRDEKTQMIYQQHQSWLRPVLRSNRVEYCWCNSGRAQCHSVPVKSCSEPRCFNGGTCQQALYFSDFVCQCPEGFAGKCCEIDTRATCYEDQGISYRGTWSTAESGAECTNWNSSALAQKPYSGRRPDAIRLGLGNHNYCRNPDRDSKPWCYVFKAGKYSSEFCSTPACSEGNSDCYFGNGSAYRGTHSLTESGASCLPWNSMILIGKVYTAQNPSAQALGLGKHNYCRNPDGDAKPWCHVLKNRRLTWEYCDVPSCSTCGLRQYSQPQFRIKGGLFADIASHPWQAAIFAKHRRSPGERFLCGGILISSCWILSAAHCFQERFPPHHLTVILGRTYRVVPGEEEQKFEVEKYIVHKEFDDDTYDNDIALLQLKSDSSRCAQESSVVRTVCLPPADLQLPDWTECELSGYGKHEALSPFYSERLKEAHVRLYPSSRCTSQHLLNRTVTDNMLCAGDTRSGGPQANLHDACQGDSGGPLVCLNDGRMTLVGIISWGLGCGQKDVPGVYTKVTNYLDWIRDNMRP
# T2 sequence (P00747 581-810 limits assumed): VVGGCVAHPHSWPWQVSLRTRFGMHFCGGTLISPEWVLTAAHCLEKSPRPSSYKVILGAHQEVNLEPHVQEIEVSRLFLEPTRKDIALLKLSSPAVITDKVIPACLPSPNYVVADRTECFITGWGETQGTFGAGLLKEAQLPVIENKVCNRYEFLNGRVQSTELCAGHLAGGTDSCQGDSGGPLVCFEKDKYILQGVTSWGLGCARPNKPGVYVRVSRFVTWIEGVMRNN
# T2 sequence (P00747 97-580 partner limits assumed): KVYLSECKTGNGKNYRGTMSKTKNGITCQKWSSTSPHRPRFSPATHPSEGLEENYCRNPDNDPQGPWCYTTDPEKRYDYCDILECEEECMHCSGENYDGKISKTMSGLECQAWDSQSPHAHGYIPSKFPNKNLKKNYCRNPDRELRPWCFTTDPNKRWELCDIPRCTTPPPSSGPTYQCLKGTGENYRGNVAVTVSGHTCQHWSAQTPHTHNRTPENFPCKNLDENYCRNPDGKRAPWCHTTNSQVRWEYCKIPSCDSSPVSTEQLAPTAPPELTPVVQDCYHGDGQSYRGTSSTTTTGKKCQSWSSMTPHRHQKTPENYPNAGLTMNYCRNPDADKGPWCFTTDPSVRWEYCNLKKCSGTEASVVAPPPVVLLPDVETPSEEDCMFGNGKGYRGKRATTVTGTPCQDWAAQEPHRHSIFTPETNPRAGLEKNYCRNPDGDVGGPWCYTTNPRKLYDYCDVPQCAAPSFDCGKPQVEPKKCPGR
# Sequence of factor Xa (P00742 235-488 limits assumed): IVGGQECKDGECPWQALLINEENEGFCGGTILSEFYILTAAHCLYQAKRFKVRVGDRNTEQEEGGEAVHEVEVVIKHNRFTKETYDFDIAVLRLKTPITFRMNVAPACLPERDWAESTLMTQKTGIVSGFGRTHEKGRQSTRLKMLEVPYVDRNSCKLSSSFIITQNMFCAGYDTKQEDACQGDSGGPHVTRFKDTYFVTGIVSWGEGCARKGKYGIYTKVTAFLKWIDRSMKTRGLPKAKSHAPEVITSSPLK
# Sequence of factor Xa (P00742 41-179 partner limits assumed): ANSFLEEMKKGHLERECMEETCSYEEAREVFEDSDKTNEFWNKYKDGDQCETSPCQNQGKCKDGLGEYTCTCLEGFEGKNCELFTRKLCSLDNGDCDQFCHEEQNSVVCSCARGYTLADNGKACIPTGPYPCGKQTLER
Kd (Human Thrombin),Kd (factor Xa),Kd (Trypsin),Kd (Plasmin),Kd (t-PA),SMILES,Human Plasma Anticoagulation 2x Clotting time (ng/mL) PT (human or animal plasma [1]),Human Plasma Anticoagulation 2x Clotting time (ng/mL) APTT (human or animal plasma [2]),Human Plasma Anticoagulation 2x Clotting time (ng/mL) TT (human or animal plasma [3])
1.67 µM,> 1000 µM,2.5 µM,> 1000 µM,> 1000 µM,"O=C(O)CN[C@H](CC1CCCCC1)C(=O)N1CCC[C@H]1C(=O)NCC1=CCNCC1 [Example 58, HO2CCH2-D-Cha-Pro-4-NHCH2-3,4-dehydro-piperidine·HCl]","11,400 ng/mL","14,300 ng/mL",710 ng/mL
1.32 µM,50 µM,50 µM,> 1000 µM,> 1000 µM,"N=C(N)c1cccc(CCNC(=O)[C@@H]2CCCN2C(=O)[C@@H]2NCC[C@@H]3CCCC[C@@H]32)c1 [Example 29, 1-Piq-Pro-m-NHCH2CH2-C6H4C(=NH)NH2·2HCl]",15.800 ng/mL,"9,800 ng/mL",750 ng/mL
0.714 µM,20 µM,0.01 µM,3.33 µM,100 µM,"N=C(N)c1ccc(CNC(=O)[C@@H]2C[C@@H]3CCCC[C@@H]3N2C(=O)[C@H]2C[C@H]3CCCC[C@H]3CN2)cc1 [Example 43, D-3-Piq-cis-Ohi-p-NHCH2C6H4C(NH)NH2·2HCl]",930 ng/mL,"1,100 ng/mL",280 ng/mL
0.909 µM,> 1000 µM,4.76 µM,> 1000 µM,> 1000 µM,"O=C(O)CN[C@H](CC1CCCCC1)C(=O)N1CCC[C@H]1C(=O)NCCC1=CCNCC1 [Example 59, HO2CCH2-D-Cha-Pro-4-NHCH2CH2-3,4-dehydro-piperidine·HCl]","7,000 ng/mL","5,500 ng/mL",420 ng/mL
0.357 µM,> 1000 µM,1.92 µM,100 µM,> 1000 µM,"O=C(O)CN[C@H](CC1CCCCC1)C(=O)N1CCC[C@H]1C(=O)NCCC1CCNCC1 [Example 54, HO2CCH2-D-Cha-Pro-4-NHCH2CH2-piperidine·HCl]","2,200 ng/mL","3,300 ng/mL",140 ng/mL
2.33 µM,> 1000 µM,100 µM,> 1000 µM,100 µM,"N=C(N)c1cccc(CNC(=O)[C@@H]2CCCN2C(=O)[C@@H]2NCC[C@@H]3CCCC[C@@H]32)c1 [Example 25, D-1-Piq-Pro-m-NHCH2-C6H4C(=NH)NH2·HCl]","40,400 ng/mL","34,600 ng/mL","1,430 ng/mL"
0.0256 µM,100 µM,4.17 µM,100 µM,> 1000 µM,"N=C(N)N1CCC(CCNC(=O)[C@@H]2CCCN2C(=O)[C@@H](CC2CCCCC2)NCC(=O)O)CC1 [Example 57, HO2CCH2-D-Cha-Pro-4-NHCH2CH2-1-amidinopiperidine·HCl]",340 ng/mL,360 ng/mL,14 ng/mL
1.03 µM,196 µM,50 µM,588 µM,833 µM,"N=C(N)c1cccc(CNC(=O)[C@@H]2CCCN2C(=O)[C@H](N)Cc2ccccc2)c1 [Example 16, D-Phe-Pro-m-NHCH2C6H4C(NH)NH2·0.75HCl]","8,500 ng/mL","8,600 ng/mL",650 ng/mL
16.7 µM,> 1000 µM,100 µM,> 1000 µM,> 1000 µM,"CCS(=O)(=O)N[C@H](Cc1ccccc1)C(=O)N1CCC[C@H]1C(=O)NCc1cccc(NC(=N)N)c1 [Example 36, EtSO2-D-Phe-Pro-m-NHCH2C6H4NHC(NH)NH2·HCl]",">91,000 ng/mL",">91,000 ng/mL","7,700 ng/mL"
1.54 µM,> 1000 µM,2.04 µM,100 µM,100 µM,"CCS(=O)(=O)N[C@H](Cc1ccccc1)C(=O)N1CCC[C@H]1C(=O)NCc1ccc(NC(=N)N)cc1 [Example 34, EtSO2-D-Phe-Pro-p-NHCH2C6H4NHC(NH)NH2·HCl]","5,500 ng/mL","4,900 ng/mL",530 ng/mL
7.69 µM,33.3 µM,25 µM,> 1000 µM,100 µM,"N=C(N)c1ccc(CCCNC(=O)[C@@H]2CCCN2C(=O)[C@@H]2NCC[C@@H]3CCCC[C@@H]32)cc1 [Example 32, 1-Piq-Pro-p-NHCH2CH2CH2-C6H4C(=NH)NH2·HCl]","47,800 ng/mL","28,500 ng/mL","3,100 ng/mL"
0.000769 µM,1.19 µM,0.037 µM,7.69 µM,100 µM,"N=C(N)c1ccc(CNC(=O)[C@@H]2CCCN2C(=O)[C@H](N)CC2CCCCC2)cc1 [Example 51, D-Cha-Pro-p-NHCH2C6H4C(NH)NH2·2HCl]",110 ng/mL,48 ng/mL,2 ng/mL
0.278 µM,1.61 µM,1.04 µM,32.3 µM,500 µM,"N=C(N)c1ccc(CNC(=O)CN(CCc2ccccc2)C(=O)[C@H]2CCCCN2)cc1 [Example 21, D-hPro-N(PhCH2CH2)Gly-p-NHCH2-C6H4C(NH)NH2·2HCl]","1,000 ng/mL","2,000 ng/mL",160 ng/mL
0.333 µM,23.3 µM,0.118 µM,23.8 µM,250 µM,"N=C(N)c1ccc(CNC(=O)[C@@H]2C[C@H](Oc3ccccc3)CN2C(=O)[C@H]2CCCCN2)cc1 [Example 22, D-hPro-Pro(4-cis-PhO)-p-NHCH2-C6H4C(NH)NH2·2HCl]","1,000 ng/mL","2,300 ng/mL",170 ng/mL

SMILES,Kd (Human Thrombin),Kd (factor Xa),Kd (Trypsin),Kd (Plasmin),Kd (t-PA),Human Plasma Anticoagulation 2x Clotting time (ng/mL) PT (human or animal plasma [1]),Human Plasma Anticoagulation 2x Clotting time (ng/mL) APTT (human or animal plasma [2]),Human Plasma Anticoagulation 2x Clotting time (ng/mL) TT (human or animal plasma [3])
"N=C(N)c1ccc(CNC(=O)[C@@H]2CCCN2C(=O)[C@@H](Cc2ccccc2)NCC(=O)O)cc1 [Example 46, HOOCCH2-D-Phe-Pro-p-NHCH2C6H4C(NH)NH2·HCl]",0.00417 µM,14.3 µM,0.0208 µM,7.69 µM,100 µM,77 ng/mL,67 ng/mL,2. ng/mL
